Our source for the TGI and GI50 values is PubChem BioAssay (NCI).

Each structure is given as a SMILES string. Values joined by “and” are separate entries in the source; they are usually repeats but may differ in a detail not shown here. Identical values can stand only once.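 These data come from cells grown in 96-well plates and exposed to compound for 48 hours at five concentrations. GI50 is the concentration that inhibits growth by half. Definition used: TGI = concentration required for complete inhibition of growth.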 Bounds are passed on as bounds.

Some test systems named below: SW-620 colon; SK-MEL-28 melanoma; SN12C renal; UACC-257 melanoma; MDA-N; TK-10 renal; M14 melanoma; MDA-MB-435; HS 578T breast.
Holding throughout (experiment): DTP human tumour cell line panel, 48 h

Take `CCCCC(=C=C1CCCCC1O)C1CCCN1C(=O)OC(C)(C)C` (centres undefined): the TGI with SW-620 colon was found to be 35.4 µM; with SK-MEL-28 melanoma it was 29.6 µM; in the assay with SN12C renal, 31.7 µM; in the assay on UACC-257 melanoma, 29.4 µM; with MDA-N, 30 µM; in the assay with TK-10 renal, 29.8 µM. For the same compound, the results for the TGI with M14 melanoma, with MDA-MB-435 and with HS 578T breast were 30.9 µM, 30.6 µM and 41 µM, respectively.
Turning to `COC1(OC)N=C(N)C2(C#N)/C(=N/N(C)C)CC(C)C12C#N` (centres undefined), the TGI in the assay on SW-620 colon, in the assay with SK-MEL-28 melanoma, in the assay with SN12C renal, with UACC-257 melanoma, with MDA-N and in the assay on TK-10 renal was above 100 µM each time. Moreover, the TGI with M14 melanoma, with MDA-MB-435 and in the assay with HS 578T breast was above 100 µM throughout.
As for `COC(=O)C1(Cc2ccccc2)Cc2ccccc2C1=O` (centres undefined), the TGI with SW-620 colon was above 100 µM; in the assay on SK-MEL-28 melanoma, above 100 µM; with SN12C renal, above 100 µM; with UACC-257 melanoma, above 100 µM; with MDA-N, 94.6 µM; in the assay on TK-10 renal it was above 100 µM. The TGI was above 100 µM in the assay with M14 melanoma, 53.4 µM with MDA-MB-435 and above 100 µM in the assay with HS 578T breast.
With `COc1ccc(C=O)cc1Oc1ccc(C[C@H]2c3c(cc(OC)c4c3Oc3cc5c(cc3O4)CCN(C)C5=O)CCN2C)cc1`, the TGI in the assay with SW-620 colon amounted to 30.9 µM; in the assay with SK-MEL-28 melanoma, 22.7 µM; with SN12C renal, 43 µM; in the assay with UACC-257 melanoma, 17.6 µM; in the assay on MDA-N, 18.2 µM; in the assay with TK-10 renal, 18.4 µM. In addition, the TGI with M14 melanoma turned out to be 19.1 µM; with MDA-MB-435, 21.7 µM; with HS 578T breast, 21.7 µM.
`O=C1N2CCc3c([nH]c4ccccc34)C23CC2CCCC12S3` (centres undefined): the TGI with SW-620 colon was above 50 µM; in the assay on SK-MEL-28 melanoma, above 50 µM; with SN12C renal, above 50 µM; in the assay with UACC-257 melanoma, 47.5 µM; with MDA-N, above 50 µM; in the assay with TK-10 renal, above 50 µM. The TGI in the assay with M14 melanoma, with MDA-MB-435 and in the assay with HS 578T breast was above 50 µM each time.
As to `COCCCN1C(=O)C2c3[nH]c4ccccc4c3C3CCC(C(C)(C)C)CC3C2C1=O` (centres undefined), the TGI is above 100 µM in the assay with SW-620 colon; above 100 µM with SK-MEL-28 melanoma; 50 µM in the assay with SN12C renal; 79.4 µM with UACC-257 melanoma; above 100 µM in the assay with MDA-N; above 100 µM in the assay with TK-10 renal. For the same compound, the values for the total growth inhibition concentration (TGI) in the assay on M14 melanoma, in the assay on MDA-MB-435 and in the assay with HS 578T breast were 39 µM, above 100 µM and 87.6 µM, respectively.
For `COc1cc(O)c2c(c1)C(O)C(O)CC1OC1C(=O)/C=C/CC(C)OC2=O` (centres undefined), the TGI in the assay on SW-620 colon amounted to 6.84 µM; in the assay on SK-MEL-28 melanoma, 12 µM; in the assay with SN12C renal, 11.8 µM; in the assay with UACC-257 melanoma, 2.48 µM; with MDA-N, 21.6 µM; in the assay on TK-10 renal, 17.5 µM. The TGI in the assay on M14 melanoma was determined as 11.8 µM; in the assay on MDA-MB-435 it was 8.31 µM; in the assay on HS 578T breast, 59.5 µM.
With `COc1ccc([C@@]23CCC(=O)C[C@@H]2N(C)CC3)cc1OC`, the total growth inhibition concentration (TGI) in the assay on SW-620 colon, in the assay with SK-MEL-28 melanoma, with UACC-257 melanoma, in the assay on MDA-N, in the assay with TK-10 renal and in the assay on M14 melanoma was above 100 µM in each case. Also, the TGI in the assay on MDA-MB-435 and in the assay with HS 578T breast was above 100 µM each time.
`O=C(O)CNC(=O)c1cccc2c(=O)c3ccccc3[nH]c12`: the total growth inhibition concentration (TGI) in the assay on SW-620 colon, in the assay with SK-MEL-28 melanoma, with SN12C renal, in the assay on UACC-257 melanoma, in the assay with MDA-N and with TK-10 renal was above 100 µM each time. The total growth inhibition concentration (TGI) with M14 melanoma, in the assay with MDA-MB-435 and in the assay with HS 578T breast was above 100 µM throughout.
Regarding `COC1=CC2(C=CC1=O)CCN=c1c(O)c3c(c(O)c12)=NC=N3` (centres undefined), the TGI with SW-620 colon, with SK-MEL-28 melanoma, in the assay with SN12C renal, in the assay on UACC-257 melanoma, in the assay with MDA-N and in the assay with TK-10 renal was above 100 µM throughout. Also, the concentration for total growth inhibition (TGI) in the assay with M14 melanoma, in the assay on MDA-MB-435 and with HS 578T breast was above 100 µM throughout.
For `CSc1s[s+]c(SC)c1-c1ccccc1`, the TGI stood at 34.9 µM in the assay with SW-620 colon; 35 µM with SN12C renal; 27.8 µM with UACC-257 melanoma; 32.7 µM in the assay on MDA-N; 32.4 µM with TK-10 renal; 30.8 µM in the assay on M14 melanoma. Further, the TGI was determined as 36 µM in the assay on MDA-MB-435 and 86.9 µM with HS 578T breast.
With `CC(C)CC1c2[nH]c3ccccc3c2C[C@H]2C(=O)NC(COC(C)(C)C)C(=O)N12` (some centres undefined), the TGI in the assay on SW-620 colon is above 100 µM; with SK-MEL-28 melanoma, above 100 µM; in the assay on SN12C renal, 47.9 µM; in the assay with UACC-257 melanoma, 39.3 µM; with MDA-N, 51.8 µM; in the assay with TK-10 renal, 56.3 µM. In addition, the figures for the TGI with M14 melanoma, with MDA-MB-435 and in the assay on HS 578T breast were 46.7 µM, 39.9 µM and 37 µM, respectively.
In the case of `COc1ccc(-c2c(C(C)=O)c(C)n(C3OC(CO)C(O)C(O)C3O)c(=S)c2C#N)cc1` (centres undefined), the TGI in the assay with SW-620 colon, in the assay with SK-MEL-28 melanoma, in the assay with SN12C renal, in the assay on UACC-257 melanoma, in the assay on MDA-N and in the assay with TK-10 renal was above 100 µM throughout. Moreover, the TGI with M14 melanoma, with MDA-MB-435 and in the assay on HS 578T breast was above 100 µM each time.
In the case of `C=CCN1C(=O)/C(=C/c2ccc(Cl)cc2)N=C1SC1OC(COC(C)=O)C(OC(C)=O)C(OC(C)=O)C1OC(C)=O` (centres undefined), the GI50 in the assay with SW-620 colon is > 59.6 µM and 11.1 µM. Also, the TGI is above 100 µM with SW-620 colon; above 100 µM in the assay on SK-MEL-28 melanoma; above 100 µM with SN12C renal; 45.2 µM and 74.4 µM in the assay with UACC-257 melanoma; above 100 µM in the assay on MDA-N; above 100 µM in the assay on TK-10 renal. The TGI is above 100 µM in the assay on M14 melanoma; > 66.3 µM and 64.8 µM in the assay on MDA-MB-435; 9.79 µM in the assay with HS 578T breast.
Turning to `Cc1cc(S(=O)(=O)NC(=NCC(=O)NN)NN)c(S)cc1Cl`, the TGI in the assay on SW-620 colon, with SK-MEL-28 melanoma, with SN12C renal, in the assay on UACC-257 melanoma, in the assay with MDA-N and in the assay with TK-10 renal was above 10 µM each time. Also, the concentration for total growth inhibition (TGI) in the assay on M14 melanoma, in the assay with MDA-MB-435 and with HS 578T breast was above 10 µM in each case.

The term TGI denotes the concentration at which net growth stops. Low readings indicate greater sensitivity of the cells, high ones lower sensitivity of the cells. Usually GI50 stands for the concentration giving 50% growth inhibition.
